Measured values taken from publication PMC6467784 (Journal of medicinal chemistry, 2019).
Values joined by “and” are separate entries in the source; they are usually repeats but may differ in a detail not shown here. Equal values may be shown once. Read-outs that look alike come from different tables or passages of the source.

Columns and labels:
[1] = system: off-target receptors and transporters; experiment: PDSP off-target screen; format: binding, human
[2] = system: wild-type C57BL/6J mice; experiment: Body temperature and locomotor activity by telemetry after ip. dosing; format: in vivo, mouse; conditions: for Effect on Tb in WT mice: ip., up to 3 or 10 mg/kg; for Tb: 3 mg/kg ip., average from dosing to 60 min, mean ±SD
[3] = molecular target: T1, hA1AR (Homo sapiens, UniProt P30542); experiment: hA1AR radioligand binding, CHO cell membranes; conditions: for hA1AR selectivity compared to hA3AR: ratio of binding Ki
T1 sequence (P30542 1-326): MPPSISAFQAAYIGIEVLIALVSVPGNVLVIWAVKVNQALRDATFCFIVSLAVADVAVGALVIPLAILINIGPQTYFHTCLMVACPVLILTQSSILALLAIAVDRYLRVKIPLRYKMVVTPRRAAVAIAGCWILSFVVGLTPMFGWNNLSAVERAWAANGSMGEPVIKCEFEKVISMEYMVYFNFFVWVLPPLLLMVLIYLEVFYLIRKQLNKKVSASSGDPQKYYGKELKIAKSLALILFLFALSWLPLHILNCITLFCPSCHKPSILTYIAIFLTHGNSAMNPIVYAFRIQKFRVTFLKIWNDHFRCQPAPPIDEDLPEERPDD

[4] = molecular target: T2, hA2BAR (Homo sapiens, UniProt P29275); experiment: hA2BAR radioligand binding using [3H]54; conditions: for inhibition at 10 µM: read-out: hA2BAR % binding inhibition at 10 μM
T2 sequence (P29275 1-332): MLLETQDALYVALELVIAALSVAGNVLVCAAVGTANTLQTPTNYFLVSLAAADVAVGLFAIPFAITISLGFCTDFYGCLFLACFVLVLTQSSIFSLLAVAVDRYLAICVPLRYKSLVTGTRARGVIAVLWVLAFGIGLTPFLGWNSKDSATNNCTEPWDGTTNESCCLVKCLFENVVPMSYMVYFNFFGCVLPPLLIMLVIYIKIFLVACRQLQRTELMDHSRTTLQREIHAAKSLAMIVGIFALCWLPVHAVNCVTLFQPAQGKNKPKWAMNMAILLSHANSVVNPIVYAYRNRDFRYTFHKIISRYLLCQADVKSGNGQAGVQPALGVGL

[5] = Stability in simulated intestinal fluid; format: in vitro ADME
[6] = system: CACO-2 cells; experiment: CACO-2 permeability and efflux; format: in vitro ADME
[7] = Stability in human plasma; format: in vitro ADME; conditions: human (h)
[8] = system: A1AR, A3AR; experiment: Hypothermia in A1AR, A3AR and A1AR/A3AR deficient mice; format: in vivo, mouse; conditions: 3 mg/kg ip.; for Receptor dependence of hypothermia: A1AR KO, A3AR KO, double KO mice; for ARs causing hypothermia: WT vs AR-KO mice (Figure 2)
[9] = Mouse liver microsomes; format: in vitro ADME
[10] = molecular target: hCYP P450 3A4 (Homo sapiens, UniProt P08684); experiment: CYP 3A4 inhibition; format: in vitro ADME
[11] = Pharmacokinetics in the male rat; format: in vivo; conditions: 3 mg/kg p.o.
[12] = Stability in mouse plasma; format: in vitro ADME; conditions: mouse (m)
[13] = Human liver microsomes; format: in vitro ADME; conditions: human
[14] = Stability in simulated gastric fluid; format: in vitro ADME
[15] = system: mice; experiment: Hypothermia after intracerebroventricular infusion; format: in vivo, mouse; conditions: for Tb reached after icv. administration: 5 μg injected icv. (equivalent to […])
[16] = molecular target: hCYP P450 2C9 (Homo sapiens, UniProt P11712); experiment: CYP 2C9 inhibition; format: in vitro ADME
[17] = Rat liver microsomes; format: in vitro ADME
[18] = Stability in rat plasma; format: in vitro ADME
[19] = molecular target: hCYP P450 2D6 (Homo sapiens, UniProt P10635); experiment: CYP 2D6 inhibition; format: in vitro ADME
[20] = system: HEP-G2 hepatocytes; experiment: Toxicity in HEP-G2 hepatocytes; format: cell-based
[21] = molecular target: 1A2 CYP isozyme (Homo sapiens, UniProt P05177); experiment: CYP 1A2 inhibition; format: in vitro ADME
[22] = molecular target: 2C19 CYP isozyme (Homo sapiens, UniProt P33261); experiment: CYP 2C19 inhibition; format: in vitro ADME
[23] = molecular target: bovine A1AR; conditions: read-out: Ki at bovine A1AR; ref [36],[37]; cited from earlier work
[24] = system: anesthetized rat; experiment: Cardiovascular effects in the anesthetized rat; format: in vivo; conditions: 0.02 mg/kg, iv., preliminary
[25] = molecular target: T3, mA1AR (Mus musculus, UniProt Q60612); experiment: mA1AR radioligand binding; conditions: ratio of binding Ki
T3 sequence (Q60612 1-326): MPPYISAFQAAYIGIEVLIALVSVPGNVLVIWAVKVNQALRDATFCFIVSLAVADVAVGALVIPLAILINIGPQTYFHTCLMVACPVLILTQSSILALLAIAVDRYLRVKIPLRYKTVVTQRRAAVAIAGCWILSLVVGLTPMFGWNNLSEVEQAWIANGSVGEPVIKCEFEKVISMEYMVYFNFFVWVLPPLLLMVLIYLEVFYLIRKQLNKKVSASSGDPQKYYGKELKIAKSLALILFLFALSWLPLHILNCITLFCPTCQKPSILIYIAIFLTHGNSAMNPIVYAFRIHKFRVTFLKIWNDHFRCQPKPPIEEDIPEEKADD

[26] = system: wild-type C57BL/6J mice; conditions: average from dosing to 60 min, ref [30], cited from earlier work
[27] = system: A1AR, A3AR; conditions: ref [30]; cited from earlier work
[28] = molecular target: T1, hA1AR; conditions: human (h); at 10 μM; ref [33],[34]; cited from earlier work

2C19 CYP isozyme, sequence (P33261 whole entry): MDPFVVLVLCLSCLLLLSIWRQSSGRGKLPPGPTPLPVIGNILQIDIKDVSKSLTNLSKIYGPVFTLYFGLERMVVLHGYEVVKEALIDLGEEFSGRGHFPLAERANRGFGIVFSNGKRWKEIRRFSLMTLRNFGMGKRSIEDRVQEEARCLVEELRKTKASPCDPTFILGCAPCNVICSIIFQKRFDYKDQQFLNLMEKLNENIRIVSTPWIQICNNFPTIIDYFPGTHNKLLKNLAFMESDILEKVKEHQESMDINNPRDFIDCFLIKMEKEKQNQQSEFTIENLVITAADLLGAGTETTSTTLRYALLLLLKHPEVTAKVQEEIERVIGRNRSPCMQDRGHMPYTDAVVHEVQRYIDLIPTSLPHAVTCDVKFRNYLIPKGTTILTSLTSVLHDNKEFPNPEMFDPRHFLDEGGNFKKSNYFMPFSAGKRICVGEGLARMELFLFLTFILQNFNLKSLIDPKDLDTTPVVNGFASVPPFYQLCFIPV
hCYP P450 3A4, sequence (P08684 whole entry): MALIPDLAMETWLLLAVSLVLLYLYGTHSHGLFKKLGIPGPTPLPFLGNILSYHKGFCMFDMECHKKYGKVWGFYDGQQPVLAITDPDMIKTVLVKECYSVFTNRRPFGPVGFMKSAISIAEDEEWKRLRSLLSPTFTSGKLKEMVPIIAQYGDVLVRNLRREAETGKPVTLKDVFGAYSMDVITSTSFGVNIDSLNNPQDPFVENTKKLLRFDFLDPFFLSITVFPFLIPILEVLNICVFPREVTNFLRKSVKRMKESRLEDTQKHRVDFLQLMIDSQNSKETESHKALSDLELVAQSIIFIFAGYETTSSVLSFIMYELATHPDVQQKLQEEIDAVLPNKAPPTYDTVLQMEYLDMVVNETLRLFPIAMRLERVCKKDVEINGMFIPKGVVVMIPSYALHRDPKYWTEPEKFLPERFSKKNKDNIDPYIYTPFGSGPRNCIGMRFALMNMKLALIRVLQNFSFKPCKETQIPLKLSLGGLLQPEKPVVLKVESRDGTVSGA
1A2 CYP isozyme, sequence (P05177 whole entry): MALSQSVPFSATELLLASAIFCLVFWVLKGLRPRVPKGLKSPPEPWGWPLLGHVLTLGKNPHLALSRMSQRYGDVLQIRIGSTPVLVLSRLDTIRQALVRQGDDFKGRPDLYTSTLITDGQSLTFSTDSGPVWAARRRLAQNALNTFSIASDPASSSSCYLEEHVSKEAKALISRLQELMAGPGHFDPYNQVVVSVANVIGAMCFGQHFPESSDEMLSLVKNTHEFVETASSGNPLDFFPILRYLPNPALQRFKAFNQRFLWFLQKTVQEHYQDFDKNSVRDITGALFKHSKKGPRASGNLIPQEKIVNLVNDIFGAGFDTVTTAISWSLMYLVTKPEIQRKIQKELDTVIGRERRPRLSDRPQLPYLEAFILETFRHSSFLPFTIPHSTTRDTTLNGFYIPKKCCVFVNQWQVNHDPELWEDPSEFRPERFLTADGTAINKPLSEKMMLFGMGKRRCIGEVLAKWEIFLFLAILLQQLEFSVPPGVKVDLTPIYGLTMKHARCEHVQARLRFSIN
hCYP P450 2C9, sequence (P11712 whole entry): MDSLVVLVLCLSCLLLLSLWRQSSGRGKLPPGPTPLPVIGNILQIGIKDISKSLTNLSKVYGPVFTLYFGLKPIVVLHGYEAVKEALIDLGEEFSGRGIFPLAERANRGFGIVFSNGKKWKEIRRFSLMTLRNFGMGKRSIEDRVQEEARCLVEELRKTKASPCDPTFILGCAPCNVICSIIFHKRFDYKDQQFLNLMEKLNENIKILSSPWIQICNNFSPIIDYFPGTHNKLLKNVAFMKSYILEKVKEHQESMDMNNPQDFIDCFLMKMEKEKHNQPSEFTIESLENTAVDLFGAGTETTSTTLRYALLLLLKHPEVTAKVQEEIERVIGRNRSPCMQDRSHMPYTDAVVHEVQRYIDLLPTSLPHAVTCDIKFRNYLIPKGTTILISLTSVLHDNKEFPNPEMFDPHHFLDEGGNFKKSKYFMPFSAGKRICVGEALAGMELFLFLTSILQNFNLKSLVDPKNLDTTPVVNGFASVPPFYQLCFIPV
hCYP P450 2D6, sequence (P10635 whole entry): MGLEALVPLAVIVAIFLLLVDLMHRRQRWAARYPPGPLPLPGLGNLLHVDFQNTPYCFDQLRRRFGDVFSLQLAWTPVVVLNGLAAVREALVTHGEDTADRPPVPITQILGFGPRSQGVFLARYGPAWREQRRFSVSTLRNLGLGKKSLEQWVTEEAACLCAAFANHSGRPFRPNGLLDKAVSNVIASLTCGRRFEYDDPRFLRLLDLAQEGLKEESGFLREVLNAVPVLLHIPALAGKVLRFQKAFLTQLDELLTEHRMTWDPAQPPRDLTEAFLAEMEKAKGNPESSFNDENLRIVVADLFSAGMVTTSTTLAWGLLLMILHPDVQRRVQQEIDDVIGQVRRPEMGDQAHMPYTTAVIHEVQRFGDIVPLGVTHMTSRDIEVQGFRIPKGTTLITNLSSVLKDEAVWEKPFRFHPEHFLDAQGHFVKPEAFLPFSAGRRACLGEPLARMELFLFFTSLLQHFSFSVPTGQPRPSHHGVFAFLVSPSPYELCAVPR

CCNC(=O)[C@H]1O[C@@H](n2cnc3c(N)ncnc32)[C@H](O)[C@@H]1O [Compound 16, reference compound]
Off-target, receptor: interactions found [1]: none

O[C@H]1[C@H](n2cnc3c(N[C@H]4C[C@H]5CC[C@@H]4C5)nc(Cl)nc32)[C@H]2C[C@@]2(CCl)[C@H]1O [Compound 31, (1S,2R,3S,4R,5S)-4-(6-(((1R,2S,4S)-Bicyclo[2.2.1]heptan-2-yl)amino)-2-chloro-9H-purin-9-yl)-1-(chloromethyl)bicyclo[3.1.0]hexane-2,3-diol]
Effect on Tb in WT mice [2]: did not significantly induce hypothermia
Off-target, receptor: interactions found [1]: none
hA1AR selectivity compared to hA3AR [3]: 10 fold

CNC(=O)[C@H]1O[C@@H](n2cnc3c(N)ncnc32)[C@H](O)[C@@H]1O [Compound 15, reference compound]
Off-target, receptor: interactions found [1]: none

Nc1nc(Cl)nc2c1ncn2[C@H]1[C@H](O)[C@H](O)[C@]2(CCl)C[C@H]12 [Compound 22]
hA1AR affinity relative to 21 ([3]; higher affinity than parent 21): 14 fold

CCOC(=O)[C@@]12C[C@@H]1[C@@H](n1cnc3c(NC(C4CCC4)C4CCC4)nc(Cl)nc31)[C@H](O)[C@@H]2O [Compound 35]
inhibition at 10 µM [4]: 38%

OC[C@@]12C[C@@H]1[C@@H](n1cnc3c(N[C@H]4C[C@H]5CC[C@@H]4C5)nc(Cl)cc31)[C@H](O)[C@@H]2O [Compound 30]
Off-target, receptor: interactions found [1]: none

OC[C@H]1O[C@@H](n2cnc3c(NC(C4CCC4)C4CCC4)ncnc32)[C@H](O)C1O (stereo in doubt) [Compound 9, (2R,3R,4R,5R)-2-(6-((Dicyclobutylmethyl)amino)-9H-purin-9-yl)-5-(hydroxymethyl)tetrahydrofuran-3,4-diol]
Stability in simulated intestinal fluid [5]: completely stable
Permeability in CACO-2 cells [6]: high permeability
Stability in plasma [7]: completely stable
Receptor dependence of hypothermia [8]: dependent on A1AR, without a contribution from A3AR
ARs causing hypothermia [8]: A1AR selective (Figure 2)
Clearance in liver microsomes [9]: medium clearance
Inhibition of 3A4 CYP isozyme [10]: no inhibition
Tb [2]: 33.0±0.7 °C
Effect on Tb in WT mice [2]: produced hypothermia and hypoactivity
maximal concentration, molar [11]: 310 nM
Stability in plasma [12]: completely stable
Clearance in liver microsomes [13]: medium clearance
Stability in simulated gastric fluid [14]: completely stable
Duration of hypothermia after icv. administration ([15]; 1.67 μg/mouse icv. (= […])): ~ 10 h
Effect on Tb after icv. administration ([15]; 1.67 μg/mouse icv. (= […])): deep hypothermia
Tb reached after icv. administration [15]: ~ 24 °C
Inhibition of 2C9 CYP isozyme [16]: weak inhibition
Clearance in liver microsomes [17]: medium clearance
Stability in plasma [18]: completely stable
Ki [4]: 8.62 µM
Inhibition of 2D6 CYP isozyme [19]: no inhibition
Toxicity in HEP-G2 hepatocytes [20]: nontoxic
Inhibition of 1A2 CYP isozyme [21]: no inhibition
Inhibition of 2C19 CYP isozyme [22]: no inhibition

OC[C@H]1O[C@@H](n2cnc3c(NC(C4CCC4)C4CCC4)nc(Cl)nc32)[C@H](O)C1O (stereo in doubt) [Compound 12, (2R,3R,4R,5R)-2-(2-Chloro-6-((dicyclobutylmethyl)amino)-9H-purin-9-yl)-5-(hydroxymethyl)tetrahydrofuran-3,4-diol]
Tb [2]: 35.5±0.8 °C
hA1AR affinity relative to 9 ([3]; lower affinity than 9): 8 fold
hA1AR selectivity compared to hA3AR [3]: 742 fold

NC(=O)c1ncn([C@@H]2O[C@H](CO)[C@@H](O)[C@H]2O)n1 [Compound 38, ribavirin, reference compound]
inhibition at 10 µM [4]: 39%
Ki [23]: 86 µM

OC[C@@]12C[C@@H]1[C@@H](n1cnc3c(N[C@H]4C[C@H]5CC[C@@H]4C5)nc(Cl)nc31)[C@H](O)[C@@H]2O [Compound 29, (1R,2R,3S,4R,5S)-4-(6-(((1R,2S,4S)-Bicyclo[2.2.1]heptan-2-yl)amino)-2-chloro-9H-purin-9-yl)-1-(hydroxymethyl)bicyclo[3.1.0]hexane-2,3-diol]
Receptor dependence of hypothermia [8]: via both central A1AR and peripheral A3AR
ARs causing hypothermia [8]: A3AR > A1AR (Figure 2)
Effect on Tb in WT mice [2]: hypothermic effect
hA1AR selectivity compared to hA3AR [3]: 12 fold

OC[C@H]1O[C@@H](n2cnc3c(NC4CCCC4)nc(Cl)nc32)[C@H](O)[C@@H]1O [Compound 2]
Effect on blood pressure [24]: sustained rise in blood pressure

O[C@@H]1[C@H](O)[C@@H](CCl)O[C@H]1n1cnc2c(NC(C3CCC3)C3CCC3)ncnc21 [Compound 10, (2S,3S,4R,5R)-2-(Chloromethyl)-5-(6-((dicyclobutylmethyl)amino)-9H-purin-9-yl)tetrahydrofuran-3,4-diol]
mA1AR selectivity compared to mA3AR [25]: 2970 fold and > 2000 fold
hA1AR selectivity compared to hA3AR [3]: 3390 fold

O[C@@H]1[C@H](O)[C@@H](CCl)O[C@H]1n1cnc2c(NC3C[C@H]4CC[C@@H]3C4)ncnc21 (stereo partly drawn) [Compound 4]
Tb ([26]; 3 mg/kg ip.): 32.2±1.3 °C
ARs causing hypothermia [27]: A1AR > A3AR[30]

O[C@@H]1[C@H](O)[C@@H]2C[C@@H]2[C@H]1n1cnc2c(NC(C3CCCC3)C3CCCC3)nc(Cl)nc21 [Compound 20]
A1AR % inhibition [28]: 34±3% (h)

NC(=O)c1ncn([C@H]2[C@H](O)[C@H](O)[C@]3(CO)C[C@H]23)n1 [Compound 40]
mA1AR selectivity compared to mA3AR [25]: 25.2 nM (~400) fold
hA1AR affinity relative to 38 ([3]; greater affinity than riboside 38): 15 fold

OC[C@H]1O[C@@H](n2cnc3c(NC4CCCC4)ncnc32)[C@H](O)[C@@H]1O [Compound 1a]
Tb ([26]; 1 mg/kg ip.): 32.4±0.5 °C
ARs causing hypothermia [27]: A3AR > A1AR[30]

O[C@H]1[C@H](n2cnc3c(NC(C4CCC4)C4CCC4)ncnc32)[C@H]2C[C@@]2(CCl)[C@H]1O [Compound 26, (1S,2R,3S,4R,5S)-1-(Chloromethyl)-4-(6-((dicyclobutylmethyl)amino)-9H-purin-9-yl)bicyclo[3.1.0]hexane-2,3-diol]
mA1AR selectivity compared to mA3AR [25]: 890 fold
hA1AR selectivity compared to hA3AR [3]: ~ 300 fold

O[C@@H]1[C@H](O)[C@@H]2C[C@@H]2[C@H]1n1cnc2c(NC(C3CCC3)C3CCC3)nc(Cl)nc21 [Compound 19]
inhibition at 10 µM [4]: 24%

OC[C@@]12C[C@@H]1[C@@H](n1cnc3c(NC(C4CCC4)C4CCC4)ncnc31)[C@H](O)[C@@H]2O [Compound 24, (1R,2R,3S,4R,5S)-4-(6-((Dicyclobutylmethyl)amino)-9H-purin-9-yl)-1-(hydroxymethyl)bicyclo[3.1.0]hexane-2,3-diol]
Effect on Tb after icv. administration ([15]; 1.67 μg/mouse icv. (= […])): reduced Tb only slightly
Tb reached after icv. administration [15]: ~ 24 °C
A1AR selectivity ([3]; abstract, species and comparator not stated): ~ 400 fold
